Test results published in patent US12570638B2, “Fused imidazole derivatives as AHR antagonists” (Sail Biomedicines, Inc., priority 2020, dated 2026).
Converted amounts (≈) assume the structure as drawn. Like-named read-outs stand apart in the source and are kept apart here.

Tests used:
[1] = biological target: T1, AHR (Homo sapiens, UniProt P35869); test: DRE-Luciferase Reporter Assay (HepG2 AhR-Lucia reporter cells); type: cell-based; details: luciferase activity with AHR activating ligand at EC50, read-out: HepG2-Luc IC50
T1 construct: other cell line with a DRE-luciferase reporter stably transfected; endogenous in cells; host or cells: Human HepG2 liver carcinoma AhR-Lucia reporter cells
T1 sequence (P35869 11-848): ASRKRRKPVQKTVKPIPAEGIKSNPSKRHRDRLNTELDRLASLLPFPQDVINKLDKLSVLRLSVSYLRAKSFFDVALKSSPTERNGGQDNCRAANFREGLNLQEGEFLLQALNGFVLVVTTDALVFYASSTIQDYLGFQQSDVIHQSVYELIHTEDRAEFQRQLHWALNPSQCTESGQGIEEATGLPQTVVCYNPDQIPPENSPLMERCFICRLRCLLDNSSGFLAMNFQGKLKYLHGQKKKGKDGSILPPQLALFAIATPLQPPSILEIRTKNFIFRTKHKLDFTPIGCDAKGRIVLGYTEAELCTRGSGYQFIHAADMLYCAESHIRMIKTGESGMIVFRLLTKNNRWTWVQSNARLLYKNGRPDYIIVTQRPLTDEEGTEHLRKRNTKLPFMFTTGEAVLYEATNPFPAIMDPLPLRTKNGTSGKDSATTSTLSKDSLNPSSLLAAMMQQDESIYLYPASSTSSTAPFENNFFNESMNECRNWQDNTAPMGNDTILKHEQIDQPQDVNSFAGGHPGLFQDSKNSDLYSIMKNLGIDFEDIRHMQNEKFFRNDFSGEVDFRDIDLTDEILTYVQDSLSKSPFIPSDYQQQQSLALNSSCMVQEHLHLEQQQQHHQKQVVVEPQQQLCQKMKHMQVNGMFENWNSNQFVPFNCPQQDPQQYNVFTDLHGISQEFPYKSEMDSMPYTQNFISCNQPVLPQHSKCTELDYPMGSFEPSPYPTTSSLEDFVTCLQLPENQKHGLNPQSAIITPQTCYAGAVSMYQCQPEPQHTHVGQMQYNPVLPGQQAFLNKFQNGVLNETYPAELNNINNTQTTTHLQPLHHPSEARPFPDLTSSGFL
Description: AHR binds to Dioxin Responsive Elements (DRE) upstream of genes that it activates. One measure of AHR activity is activation of a reporter gene, such as luciferase, downstream of one or multiple DRE elements. Luciferase activity will reflect activation and inhibition of AHR in the cells expressing his reporter. 20000 Human HepG2 liver carcinoma—AhR-Lucia reporter cells or Human HT29 colon adenocarcinoma—AhR reporter cells or other cell line with a DRE-luciferase reporter stably transfected were plated in Eagle's Minimal Essential Medium, 10% heat-inactivated FBS, 1× non-essential amino acids Pen-Strep (10,000 U/mL) and Normocin (100 ug/mL) in plates (96-well, 384-well or other plates) and incubated overnight at 37° C. in a CO2 incubator and treated with and without AhR antagonists at a log dilution starting at 100 uM.
After 1 hr that cells were plated an AHR activating ligand, such as TCDD, kynurenine, ITE (2-(1H-indole-3-ylcarbonyl)-4-thiazolecarboxylic methyl ester), VAF347, BNF (beta-naphthoflavone), FICZ (6-formylindolo(3,2-b) carbazole) or other AHR ligands at their specific EC50 concentration, were added to the cells with or without AHR antagonist.
Cells were incubated for 24 or 48 hours or another time point and then, supernatant was analyzed for determination of luciferase activity as a read-out of the AHR activation or inhibition. Luciferase was measured with the commercial kit QUANTI-Luc™ assay solution kit from Invivogen following the manufacturer's instructions.
The level of luciferase with only agonist ligand added was the maximum signal while the luciferase with […] was the minimum signal. IC50 values were determined as the concentration which inhibits half of the luciferase activity.

[2] = Solubility Determination Assay (PBS, LC-MS/MS); type: physicochemical; details: aqueous buffer, kinetic from dmso stock
Procedure: The stock solutions of test compounds and control compound progesterone were prepared in DMSO at the concentrations of 10 mM. 15 μL of stock solution (10 mM) of each sample was placed in order into their proper 96-well rack. 485 μL of PBS pH 1.6 and pH 7.4 were added into each vial of the cap-less Solubility Sample plate. The assay was performed in singlet. One stir stick was added to each vial and then the vial was sealed using a molded PTFE/Silicone plug. […] After completion of the 2 hours, plugs were removed and the stir sticks were removed using a big magnet. The samples from the Solubility Sample plate were transferred into the filter plate. Using the Vacuum Manifold, all the samples were filtered. An aliquot of 5 μL was taken from the filtrate followed by addition of 495 μL of a mixture of H2O and acetonitrile containing internal standard (1:1). A certain proportion of ultrapure water was used to dilute the diluent according to the peak shape. The dilution factor was changed according to the solubility values and the LC-MS signal response.
From the 10 mM DMSO STD plate, 6 μL was transferred into the remaining empty plate, and then 194 μL of DMSO were added to that plate to have a STD concentration of 300 μM. From the 300 μM DMSO STD plate, 5 μL were transferred into the remaining empty plate, and then 495 μL of a mixture of H2O and acetonitrile containing internal standard (1:1) were added to that plate to have a final STD concentration of 3 μM. A certain proportion of ultrapure water was used to dilute the diluent according to the peak shape. The concentrations of the standard samples were changed according to the LC-MS signal response.
The plate was placed into the well plate autosampler. The samples were evaluated by LC-MS/MS analysis.
All calculations were carried out using Microsoft Excel.
The filtrate was analyzed and quantified against a standard of known concentration using LC coupled with mass spectral peak identification and quantitation. Solubility values of the test compound and control compound were calculated as follows: […]
Any value of the compounds that was not within the specified limits was rejected and the experiment was repeated.
“+++” indicates a solubility value equal to or greater than 10 μM, “++” indicates a solubility value between 1 and 10 μM, and “+” indicates a solubility value less than 1 μM.

[3] = PBS pH 1.6, 25° C., read-out: Aq. Solubility at pH = 1.6
[4] = PBS pH 7.4, 25° C., read-out: Aq. Solubility at pH = 7.4

| Structure (SMILES) | IC50 [1] [nM] | solubility at 2 h [2, 3] [µM] | solubility at 2 h [2, 4] [µM] |
| --- | --- | --- | --- |
| Cn1nccc1C(=O)Nc1ccc2nc(-c3ccccc3C(F)(F)F)[nH]c2c1 [A, 1-methyl-N-(2-(2-(trifluoromethyl)phenyl)-1H-benzo[d]imidazol-6-yl)-1H-pyrazole-5-carboxamide] | 100 to 500 | > 10 | > 10 |
| Cn1ncnc1C(=O)Nc1ccc2nc(-c3ccccc3C(F)(F)F)[nH]c2c1 [Compound H, 1-methyl-N-(2-(2-(trifluoromethyl)phenyl)-1H-benzo[d]imidazol-6-yl)-1H-1,2,4-triazole-5-carboxamide] | < 100 | > 10 | 1 to 10 (≈ 0.386 to 3.86 µg/mL) |
